Experimental data taken from ChEMBL document CHEMBL5385858, “Identification of novel Pyrrolo[2,3-d]Pyrimidine-based KRAS G12C inhibitors with anticancer effects” (Eur J Med Chem, 2023).
Activity calls are given as the source filed them. The calls are words filed in the database; no cut-off is given here.

Tests used:
SOS1-KRAS = SOS1-KRAS (Homo sapiens, UniProt P01116, G12C); assay: Inhibition of KRAS G12C mutant/SOS1 (unknown origin) interaction incubated for 2 hrs in presence of GTP by HTRF assay; type: protein-complex assay
NCI-H1975 = assay: Antiproliferative activity against human NCI-H1975 cells harboring wild-type KRAS assessed as inhibition of cell proliferation incubated for 3 days by CCK8 assay; type: functional, cell-based; details: NCI-H1975, 72 h
NCI-H358 [1] = assay: Antiproliferative activity against human NCI-H358 cells harboring KRAS G12C mutant assessed as inhibition of cell proliferation incubated for 3 days by CCK8 assay; type: functional, cell-based; details: NCI-H358, 72 h
NCI-H358 [2] = assay: Antitumor activity in human NCI-H358 cells xenografted in BALB/c-nu/nu mouse assessed as tumor growth inhibition at 10 mg/kg, po qd treated for 20 days relative to control; type: functional; details: time 20 day
NCI-H358 [3] = assay: Induction of apoptosis in human NCI-H358 cells assessed as early apoptotic cells at 0.1 uM incubated for 24 hrs by Annexin V-FITC/PI staining based flow cytometry (reference value: 5.4 %); type: functional
A549 = assay: Antiproliferative activity against human A549 cells harboring KRAS G12S mutant assessed as inhibition of cell proliferation incubated for 3 days by CCK8 assay; type: functional, cell-based; details: A549, 72 h
MIA PaCa-2 = assay: Antiproliferative activity against human MIA PaCa-2 cells harboring KRAS G12C mutant assessed as inhibition of cell proliferation incubated for 3 days by CCK8 assay; type: functional, cell-based; details: MIA PaCa-2, 72 h
NCI-H358 [4] = assay: Antiproliferative activity against human NCI-H358 cells harboring KRAS G12C/Y96D mutant assessed as inhibition of cell proliferation incubated for 48 hrs by CCK8 assay; type: functional, cell-based
NCI-H358 [5] = assay: Induction of apoptosis in human NCI-H358 cells assessed as necrotic cells at 0.1 uM incubated for 24 hrs by Annexin V-FITC/PI staining based flow cytometry (reference value: 1.88 %); type: functional
NCI-H358 [6] = assay: Induction of apoptosis in human NCI-H358 cells assessed as viable cells at 0.1 uM incubated for 24 hrs by Annexin V-FITC/PI staining based flow cytometry (reference value: 91.4 %); type: functional
NCI-H358 [7] = assay: Induction of apoptosis in human NCI-H358 cells assessed as late apoptotic cells at 0.1 uM incubated for 24 hrs by Annexin V-FITC/PI staining based flow cytometry (reference value: 1.32 %); type: functional
NCI-H358 [8] = assay: Inhibition of cell migration in human NCI-H358 cells at 0.1 uM measured for 48 hrs by wound scratch assay; type: functional, cell-based
NCI-H358 [9] = assay: Inhibition of cell invasion in human NCI-H358 cells measured for 24 hrs by transwell assay; type: functional, cell-based

SOS1-KRAS, sequence (P01116 whole entry G12C, looked up): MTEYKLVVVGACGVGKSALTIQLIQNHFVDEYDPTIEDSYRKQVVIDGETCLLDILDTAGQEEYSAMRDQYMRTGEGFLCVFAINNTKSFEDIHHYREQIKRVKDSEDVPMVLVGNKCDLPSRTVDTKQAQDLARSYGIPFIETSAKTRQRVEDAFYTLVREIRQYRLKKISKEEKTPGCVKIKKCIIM

IC50 (SOS1-KRAS) [µM]	SMILES	further results
> 10	C=CC(=O)N1CCN(c2nc(OCCN(C(C)C)C(C)C)nc3c2cc(-c2cccc4cccc(C)c24)n3C)C[C@@H]1CC#N	
> 10	C=CC(=O)N1CCN(c2nc(OC[C@@H]3CCCN3C)nc3c2cc(-c2ccc4[nH]ncc4c2)n3C)C[C@@H]1CC#N	
	C=C(F)C(=O)N1CCN(c2nc(OC[C@@H]3CCCN3C)nc3c2CCN(c2cccc4cccc(Cl)c24)C3)C[C@@H]1CC#N [ADAGRASIB]	IC50 (NCI-H1975): 6.37 µM; IC50 (NCI-H358 [1]): 0.02 µM; TGI (NCI-H358 [2]): 69.3%; Activity (NCI-H358 [3]): 14.5%; IC50 (A549): 12.9 µM; IC50 (MIA PaCa-2): 0.05 µM; inhibition (NCI-H358 [4]): inactive; Activity (NCI-H358 [5]): 1.04%; Activity (NCI-H358 [6]): 79.9%; Activity (NCI-H358 [7]): 4.52%; Activity (NCI-H358 [8]): Active; Activity (NCI-H358 [9]): Dose-Dependent Effect
> 10	C=CC(=O)N1CCN(c2nc(OC[C@@H]3CCCN3C)nc3c2cc(-c2cccc4cccc(OC)c24)n3C)C[C@@H]1CC#N	
3.24	C=CC(=O)N1CCN(c2nc(OC[C@@H]3CCCN3C)nc3c2cc(-c2cccc4cccc(O)c24)n3C)C[C@@H]1CC#N	
> 10	C=CC(=O)N1CCN(c2nc(OC[C@@H]3CCCN3C)nc3c2cc(-c2c(C)ccc4[nH]ncc24)n3C)C[C@@H]1CC#N	
> 10	C=CC(=O)N1CCN(c2nc(N3CCOCC3)nc3c2cc(-c2cccc4cccc(C)c24)n3C)C[C@@H]1CC#N	
1.54	C=CC(=O)N1CCN(c2nc(OC[C@@H]3CCCN3C)nc3c2cc(-c2cccc4cccc(C)c24)n3C)C[C@@H]1CC#N	
0.34	C=CC(=O)N1CCN(c2nc(OCC34CCCN3CCC4)nc3c2cc(-c2cccc4cccc(C)c24)n3C)C[C@@H]1CC#N	
2.04	C=CC(=O)N1CCN(c2nc(OC[C@@H]3CCCN3C)nc3c2cc(-c2cc(O)cc4ccccc24)n3C)C[C@@H]1CC#N	
> 10	C=CC(=O)N1CCN(c2nc(OCCN(C)C)nc3c2cc(-c2cccc4cccc(C)c24)n3C)C[C@@H]1CC#N	
> 10	C=CC(=O)N1CCN(c2nc(N3CCN(C)CC3)nc3c2cc(-c2cccc4cccc(C)c24)n3C)C[C@@H]1CC#N	
1.94	C=CC(=O)N1CCN(c2nc(OC[C@H]3CCCN3C)nc3c2cc(-c2cccc4cccc(C)c24)n3C)C[C@@H]1CC#N	
> 10	C=CC(=O)N1CCN(c2nc(NCCN(C)C)nc3c2cc(-c2cccc4cccc(C)c24)n3C)C[C@@H]1CC#N	
> 10	C=CC(=O)N1CCN(c2nc(OC[C@@H]3CCCN3C)nc3c2cc(-c2cc(OC)cc4ccccc24)n3C)C[C@@H]1CC#N	
> 10	C=CC(=O)N1CCN(c2nc(OC[C@@H]3CCCN3C)nc3c2cc(-c2c(C)ccc4c2cnn4C)n3C)C[C@@H]1CC#N	
